Experimental data from patent US11549123B2, “Plant EPSP synthases and methods of use” (PIONEER HI-BRED INTERNATIONAL, INC., priority 2015, dated 2023).

Assays:
Format in all cases: biochemical
[1] = molecular target: T1, Zea mays EPSPS variant Zm-A189T (Zea mays, UniProt O24566, A188T); experiment: Substrate saturation kinetic analysis with glyphosate, Zm-A189T
T1 sequence (O24566 with tags, fused parts or gaps A188T): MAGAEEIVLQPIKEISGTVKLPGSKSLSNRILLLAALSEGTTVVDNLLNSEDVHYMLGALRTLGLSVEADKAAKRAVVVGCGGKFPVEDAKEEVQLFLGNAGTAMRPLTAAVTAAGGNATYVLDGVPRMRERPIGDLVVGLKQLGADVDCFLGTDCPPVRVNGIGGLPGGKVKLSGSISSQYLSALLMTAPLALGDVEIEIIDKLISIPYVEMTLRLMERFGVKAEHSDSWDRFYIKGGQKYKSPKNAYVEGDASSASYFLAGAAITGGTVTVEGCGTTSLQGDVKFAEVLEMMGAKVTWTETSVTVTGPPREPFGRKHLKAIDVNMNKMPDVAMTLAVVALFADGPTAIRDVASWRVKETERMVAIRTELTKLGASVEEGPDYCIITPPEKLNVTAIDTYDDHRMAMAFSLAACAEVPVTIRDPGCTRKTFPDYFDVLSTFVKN

[2] = molecular target: Sorghum halepense EPSPS, native, SEQ ID NO:8 (Sorghum halepense, UniProt H6T5X2); experiment: EPSPS substrate saturation kinetics, native sorghum
Procedure: EPSPS activity was determined by quantifying the phosphate generated from the EPSPS reaction. Release of inorganic phosphate was coupled to reaction with 2-amino-6-mercapto-7-methylpurine ribonucleoside, catalyzed by purine-nucleoside phosphorylase (M R Webb, Proc. Natl. Acad. Sci. 89:4884-4887, 1992). The absorbance change that occurs was monitored at 360 nm, where the extinction is 11,200 M^−1 cm^−1, with a Spectramax plate reader (Molecular Devices). To determine kinetic parameters, the varied substrate was present at seven concentrations (the eighth being the blank, containing no substrate) ranging from 4 to 400 uM and the unvaried substrate present at saturation. […] Reactions were monitored with a Spectramax plate reader. […] KI was then calculated from the following form of the Michaelis-Menten equation for competitive inhibition: KI=KM[I]/(KM app−KM) KM approximates the dissociation constant of the enzyme-substrate complex while kcat is the rate of conversion of substrate to product when the substrate concentration is saturating. kcat/KM is a widely accepted parameter for catalytic efficiency when substrate concentration is low (˜KM). […] The parameter kcat/KM×KI is used to quantify both catalytic efficiency and insensitivity and thus the overall fitness of the enzyme. […]

[3] = molecular target: T2, Zea mays EPSPS variant Zm-H6 (868-H6) with D196V (H6-D196V) (Zea mays, UniProt O24566, A1R/A3W/A415G/A71Q/D195V/D401G/E301S/E390G/G101A/I207L/K83R/L97C/T278A/T360S/T440Q/V437R); experiment: Rapid two-rate method for (kcat/KM)*KI, H6-D196V; conditions: [E] 0.07 uM, [Gly] 1000 uM
T2 construct: shuffled variant 868-H6 plus D196V; E. coli BL21(DE3), Ni-NTA purified
T2 sequence (O24566 with tags, fused parts or gaps A1R/A3W/A71Q/K83R/L97C/G101A/D195V/I207L/T278A/E301S/T360S/E390G/D401G/A415G/V437R/T440Q): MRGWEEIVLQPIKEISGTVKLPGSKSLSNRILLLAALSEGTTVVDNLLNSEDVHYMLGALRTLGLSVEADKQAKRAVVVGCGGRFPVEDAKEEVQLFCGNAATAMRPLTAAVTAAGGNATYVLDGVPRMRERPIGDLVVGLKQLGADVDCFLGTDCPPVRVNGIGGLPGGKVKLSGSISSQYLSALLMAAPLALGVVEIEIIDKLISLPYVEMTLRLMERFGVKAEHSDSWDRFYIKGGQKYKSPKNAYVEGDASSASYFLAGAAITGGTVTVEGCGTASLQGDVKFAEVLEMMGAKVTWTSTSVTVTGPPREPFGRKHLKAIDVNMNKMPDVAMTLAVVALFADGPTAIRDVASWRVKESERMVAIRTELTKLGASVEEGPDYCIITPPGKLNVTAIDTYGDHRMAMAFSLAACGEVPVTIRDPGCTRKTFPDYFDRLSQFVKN
From the text: There are several practical considerations for accurately estimating (kcat/KM)*KI with the rapid method. […] 2) The inhibitor concentration must be adjusted so as to obtain a degree of inhibition that minimally amplifies the error in the term v0-vi in Equation 3. If inhibition is too little, v0-vi will be small, and the error in the multiplier vi×v0/(v0-vi) will be large. […] 3) Substrate concentration should be set at the approximate KM of the parental variant(s), subject to the sensitivity of the assay. High substrate concentration obscures sensitivity to the inhibitor and reduces stringency for capturing improvements in KM. Depending on the necessity for speed, there exists opportunity for customizing enzyme and inhibitor concentrations. […] The rapid method was repeated for those and obtained data that correlated better with data obtained by substrate saturation analysis. For screening purposes however, that correlation step is not necessary. Conditions can be set so that variants with a pre-determined minimal fitness level are accurately quantified.
In Table 15, parameters above the heavy line for the rapid method were obtained under standard conditions. For variants shown below the heavy line, the rapid analysis was repeated with enzyme or glyphosate concentrations adjusted as needed to generate sufficient signal within the limits for linear initial rates.

Chain of Sorghum halepense EPSPS, native, SEQ ID NO:8 (H6T5X2 entry or part of it): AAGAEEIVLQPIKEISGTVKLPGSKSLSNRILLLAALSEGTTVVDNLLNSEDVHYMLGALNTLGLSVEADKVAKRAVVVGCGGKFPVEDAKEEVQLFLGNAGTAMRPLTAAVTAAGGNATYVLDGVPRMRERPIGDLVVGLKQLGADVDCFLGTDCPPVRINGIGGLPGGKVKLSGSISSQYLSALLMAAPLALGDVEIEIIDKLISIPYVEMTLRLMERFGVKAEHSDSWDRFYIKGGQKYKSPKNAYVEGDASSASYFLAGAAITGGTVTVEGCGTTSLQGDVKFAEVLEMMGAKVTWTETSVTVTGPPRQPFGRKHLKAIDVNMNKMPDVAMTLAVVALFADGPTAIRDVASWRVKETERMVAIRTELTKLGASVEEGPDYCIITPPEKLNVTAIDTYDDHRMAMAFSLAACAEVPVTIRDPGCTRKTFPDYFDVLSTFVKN

**Q.** For `O=C(O)CNCP(=O)(O)O` [glyphosate, N-phosphonomethylglycine], which Ki [1] is on record?
**A.** Its Ki is 337 µM.

**Q.** And the “(kcat/KM)*KI” value ([1]; substrate saturation, Zm-A189T)?
**A.** The value was 283.

**Q.** And the Ki [2]?
**A.** Its Ki is 0.2 µM.

**Q.** What about the “(kcat/KM)*KI” value ([2]; PEP as substrate, glyphosate as inhibitor) of the same molecule?
**A.** The value was 33.

**Q.** And the “(kcat/KM)*KI” value [3]?
**A.** Its value is 1704.
